Key:
[1] = Rodent pharmacokinetic study; format: in vivo, Male Wistar rats; details: male, Wistar, rat, plasma
Protocol: Rodent Pharmacokinetic Study
Male Wistar rats (260±50 grams) were used as experimental animals. Animals were housed individually in polypropylene cage. Two days prior to study, male Wistar rats were anesthetized with isoflurane for surgical placement of jugular vein catheter. Rats were randomly divided for oral (3 mg/kg) and intravenous (i.v) (1 mg/kg) dosing (n=3/group) and fasted overnight before oral dosing (p.o.). However, rats allocated to intravenous (i.v.) dosing food and water was provided ad libitum.
At pre-determined point, blood was collected through jugular vein and replenished with an equivalent volume of normal saline. Collected blood was transferred into a labeled eppendorf tube containing 10 μL of heparin as an anticoagulant. Typically blood samples were collected at following time points: 0.08, 0.25, 0.5, 1, 2, 4, 6, 8, and 24 hours post dose. Blood was centrifuged at 4000 rpm for 10 minutes. Plasma was separated and stored frozen at −80° C. until analysis. The concentrations of the test compounds were quantified in plasma by qualified LC-MS/MS method using suitable extraction technique. The test compounds were quantified in the calibration range around 1-1000 ng/mL in plasma. Study samples were analyzed using calibration samples in the batch and quality control samples spread across the batch.
Pharmacokinetic parameters Cmax, AUCt, T1/2, clearance and bioavailability (F) were calculated by non-compartmental model using standard non-compartmental model by using Phoenix WinNonlin 6.0.2 or 6.0.3 version Software package.

[2] = Rodent brain penetration study; format: in vivo, Male Wistar rats; details: male, Wistar, brain and plasma, po; rat, 3 mg/kg, p.o. @ 1.0 hr, brain-plasma ratio; read-out: Single dose Rat Brain Penetration (Cb/Cp)
Protocol: Rodent Brain Penetration Study
Male Wistar rats (260±40 grams) were used as experimental animals. Three animals were housed in each cage. Animals were given water and food ad libitum throughout the experiment and maintained on a 12 hours light/dark cycle.
Brain penetration was determined in discrete manner in rats. One day prior to dosing day, male Wistar rats were acclimatized and randomly grouped according to their weight. At each time point (0.5, 1 and 2 hours) n=3 animals were used.
The test compounds were suitably preformulated and administered orally at (free base equivalent) 3 mg/kg. Blood samples were removed via cardiac puncture by using isoflurane anesthesia. The animals were sacrificed to collect brain tissue. Plasma was separated and brain samples were homogenized and stored frozen at −20° C. until analysis. The concentrations of the test compounds in plasma and brain were determined using LC-MS/MS method.
The test compounds were quantified in plasma and brain homogenate by qualified LC-MS/MS method using suitable extraction technique. The test compounds were quantified in the calibration range of 1-500 ng/mL in plasma and brain homogenate. Study samples were analyzed using calibration samples in the batch and quality control samples spread across the batch.

Male Wistar rats = test: Object recognition task model; format: in vivo; details: rat, 3 mg/kg, p.o.
Protocol: Object Recognition Task Model
The cognition enhancing properties of compounds of this invention were estimated by using this model.
Male Wistar rats (8-10 weeks old) were used as experimental animals. Four animals were housed in each cage. Animals were kept on 20% food deprivation from a day prior to experimentation. Water was provided ad libitum throughout the experiment. Animals were maintained on a 12 hours light/dark cycle in temperature and humidity controlled room. The experiment was carried out in a circular or square arena made up of acrylic. Rats were habituated to individual arenas for up to 1 hour in the absence of any objects on day 1.
One group of 12 rats received vehicle and another set of animals received compound of the formula (I), before the familiar (T1) and choice (T2) trials. During the familiarization phase, (T1), the rats were placed individually in the arena for 3 minutes, in which two identical objects (a1 and a2) were positioned 10 cm from the wall. 24 hours after T1, trial for long-term memory test was performed. The same rats were placed in the same arena as they were placed in T1 trial. During the choice phase (T2) rats were allowed to explore the arena for 3 minutes in presence of a copy of familiar object (a3) and one novel object (b). During the T1 and T2 trial, explorations of each object (defined as sniffing, licking, chewing or having moving vibrissae whilst directing the nose towards the object at a distance of less than 1 cm) were recorded using stopwatch.
T1 is the total time spent exploring the familiar objects (a1+a2).
T2 is the total time spent exploring the familiar object and novel object (a3+b).
The object recognition test was performed as described by Ennaceur, A., Delacour, J., 1988, A new one-trial test for neurobiological studies of memory in rats˜Behavioural data, Behav. Brain Res., 31, 47-59.

[3] = test system: hippocampal theta oscillations; test: Theta modulation in dorsal hippocampus of anesthetized rats in combination with donepezil; format: in vivo, Male Wistar rats; details: anesthetized rat, Example 32 1 mg/kg
Source text: Evaluation of Theta Modulation in Dorsal Hippocampus of Anesthetized Male Wistar
Male Wistar rats (240-320 g) were anesthetized by Intraperitoneal administration of urethane (1.2 to 1.5 g/kg) for implantation of a catheter in the left femoral vein. The animal was placed in a stereotaxic frame for implanting an electrode (stainless steel wire, Plastics One) into the dorsal hippocampus (AP: −3.8 mm; ML: +2.2 mm; DV: −2.5 mm; Paxinos and Watson, 2004). Bipolar stimulating electrode (untwisted stainless steel wires, separated by 0.75-1.0 mm at their tips, Plastics One) was implanted in the Nucleus Pontis Oralis (NPO; AP: −7.8 mm; ML: 1.8 mm; DV: −6.0 mm; Paxinos and Watson, 2004). Additionally one electrode was implanted into the cerebellum which served as a reference. Hippocampal θ rhythm was evoked via a 6-s electrical stimulation train (20-160 μA, 0.3-ms pulse duration, 250 Hz) delivered to the NPO at a rate of 0.01 trains/s with a Grass S88 stimulator and PSIU6 stimulus isolation unit (Grass Medical Instruments, Quincy, Mass.). EEG was recorded at a rate of 1000 Hz using Ponemah (Version 5.2) software and stored for off-line analysis using NeuroScore (Version 3.0). Baseline amplitude level was achieved by using the current required to elicit […] to 50% of the maximal amplitude under control conditions. After the stabilization period of one hour, baseline recording was done for 30 min followed by the treatment of vehicle or Example 32 (1 mg/kg, i.v.).
Power in the θ rhythm frequency in the stimulation period during the 30-min baseline period was calculated and the % changes in these measures post treatment were calculated. […] Statistical significance was considered at a p value less than 0.05.

[4] = choice trial T2, 24 hours after T1

Compound: Cn1cc(-c2ccc(Cc3cc(C(=O)N[C@H]4CCCC[C@@H]4O)n4ncccc34)cc2)cn1 [Example 32, N-(cis-1S,2S-2-Hydroxycyclohexyl)-5-[4-(1-methyl-1H-pyrazol-4-yl)-benzyl]-pyrrolo [1,2-b]pyridazine-7-carboxamide]
- AUC(0-t) ([1]; iv, i.v. 1 mg/kg): 3260 ± 802 ng·h/mL
- half-life ([1]; iv, i.v. 1 mg/kg): 3.2 ± 1.2 h
- clearance ([1]; iv, i.v. 1 mg/kg): 5.2 ± 1.4 mL/min/kg
- bioavailability ([1]; oral 3 mg/kg vs i.v. 1 mg/kg, bioavailability): 50 ± 17%
- AUC(0-t) ([1]; oral 3 mg/kg): 4900 ± 1640 ng·h/mL
- Cmax ([1]; oral 3 mg/kg): 650 ± 224 ng/mL
- half-life ([1]; oral 3 mg/kg): 3.2 ± 0.4 h
- Kp at 1 h [2]: 0.15 ± 0.02
- Inference (Male Wistar rats): Active
- Exploration time mean ± S.E.M, Familiar object (Male Wistar rats; [4]): 11.64 ± 2.16 s
- Exploration time mean ± S.E.M, Novel object (Male Wistar rats; [4]): 19.81 ± 2.96 s
- Mean area under the curve values (AUC) of θ power change, combination versus donepezil alone ([3]; i.v. + donepezil 0.3 mg/kg): significantly higher compared to donepezil alone
- effect on θ power, combination treatment versus donepezil alone ([3]; i.v. + donepezil 0.3 mg/kg): significantly higher than the donepezil alone
- θ power levels ([3]; i.v. in combination with donepezil 0.3 mg/kg): significant increase
